The text below walks through data of patent US20100179188A1, “NITROXIDE RADICAL AS TREATMENT FOR NEURODEGENERATION” (Office of Technology Transfer, NIH, priority 2007, published 2010).

Data set [1] deals with T1, mitochondrial aconitase (Mus musculus, UniProt Q99KI0).
T1 construct: endogenous in cells; host or cells: mouse embryonic fibroblasts
T1 sequence (Q99KI0 28-780): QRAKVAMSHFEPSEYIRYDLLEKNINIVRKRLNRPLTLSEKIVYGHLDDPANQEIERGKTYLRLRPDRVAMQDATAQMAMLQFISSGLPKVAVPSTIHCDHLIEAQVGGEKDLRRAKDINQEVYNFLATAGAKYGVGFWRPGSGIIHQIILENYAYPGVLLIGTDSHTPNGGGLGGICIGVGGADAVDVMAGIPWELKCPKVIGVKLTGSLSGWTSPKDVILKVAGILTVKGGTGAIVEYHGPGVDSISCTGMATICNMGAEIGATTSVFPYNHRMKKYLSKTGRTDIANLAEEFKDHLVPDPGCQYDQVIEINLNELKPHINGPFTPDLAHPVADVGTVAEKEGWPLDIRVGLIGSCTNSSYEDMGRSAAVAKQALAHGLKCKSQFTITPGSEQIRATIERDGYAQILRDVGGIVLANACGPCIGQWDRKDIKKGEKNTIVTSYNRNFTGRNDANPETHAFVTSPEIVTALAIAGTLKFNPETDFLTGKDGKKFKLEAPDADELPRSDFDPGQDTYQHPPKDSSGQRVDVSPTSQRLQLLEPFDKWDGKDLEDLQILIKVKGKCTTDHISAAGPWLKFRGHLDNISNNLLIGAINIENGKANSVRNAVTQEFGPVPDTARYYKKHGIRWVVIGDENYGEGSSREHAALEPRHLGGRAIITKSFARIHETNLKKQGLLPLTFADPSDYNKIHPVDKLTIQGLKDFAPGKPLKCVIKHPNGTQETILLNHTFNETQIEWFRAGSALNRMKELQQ
In words: In-gel aconitase assay in mouse embryonic fibroblasts, mitochondrial aconitase. It is filed as cell-based. As for the experimental part:
Cells: Embryonic fibroblasts of 13-day old embryos were isolated from wild type, IRP1−/− mice and IRP2−/− mice as described in LaVaute et al. supra. Myc-tagged HEK 293 Tet-on cell line, in which IRP2 expression was inducible, was prepared and cultured as described Bourdon et al., Blood Cells Mol Dis, 31, 247-255 (2003). Erythroblasts were harvested from bone marrow and purified as described in Cooperman et al., Blood, 106, 1084-1091 (2005).
Aconitase assay: Aconitase activity gels for human lysates were performed as described in Tong et al., infra, and aconitase activity gels for mouse lysate were performed with the following modifications. […] Spectral aconitase activity was measured by following the method of Fillebeen et al., infra, using cis-aconitate as the substrate.
To determine whether the effect of Tempo1 on IRP1 activity was kinetically consistent with oxidative disassembly of the iron sulfur cluster, the effect of Tempo1 on aconitase activity was compared to that of the iron chelator, deferiprone (DFO), which activates IRE-binding activity of IRP1 by limiting de novo synthesis and repair of the iron sulfur cluster in IRP1. […] Recovery of aconitase activity was assessed in wild type and IRP2−/− cells.

The test system of data set [2] is ferritin. The data set can be described thus: Western blot of ferritin in cerebellar lysates. The class given is in vivo. Conditions: cerebellar lysates of IRP2−/− mice, Tempo1 diet vs control diet. As for the experimental part:
Diet: The mice were weaned 3-4 weeks after their birth. Immediately after weaning, mice were maintained on either a Tempo1-supplemented or control diet. In the Tempo1-supplemented diet, powdered Tempo1 was uniformly mixed with bacon-flavored mouse chow by a “cold press” technique (Bio-Serv, Frenchtown, N.J., USA) at a concentration of 10 mg/g of food. Bacon-flavored chow without Tempo1 was used as the control diet.
Tissue and lysate preparation: Animals were euthanized and tissues were frozen in liquid nitrogen immediately after harvesting, and stored at −80° C. under argon. Experiments were performed on tissues that were pulverized in liquid N2-cooled mortars in an anaerobic chamber, and then lysed in lysis buffer that was deaerated by cyclic freezethaw and air-removal with argon. Nuclei and debris were removed by centrifugation. Preparations of lysates for assays of IRP1 activity, western blotting, carbonyl assay and protein analysis were performed anaerobically. […]
Cerebellar lysates from wild-type and IRP2−/− mice that were maintained on a control diet or on a Tempo1-supplemented diet were analyzed for ferritin and actin expression. […] Quantification was performed with the NIH Image program. Error bars represent the standard deviation calculated from the results of three different sets of animals. […]
Background: A western blot detects proteins with antibodies after separation by electrophoresis.

In the case of `CC1(C)CC(O)CC(C)(C)N1[O]` [Tempo1], the mitochondrial aconitase activity entry in data set [1] is on record as “does not substantially affect”. Also, the ferritin levels result in data set [2] is given as “reduced”.
